In data set [1] the test system is CYP3A4/5. The data set can be described thus: NADPH dependence and effects of dilution of time-dependent inhibition of CYP3A4/5 (testosterone 6β-hydroxylation and midazolam 1′-hydroxylation). It counts as in vitro ADME, human. The conditions noted are these: 3 μM.
In data set [2] the target is T1, CYP2D6 (Homo sapiens, UniProt P10635).
T1 construct: Pooled human liver microsomes (from sixteen individuals) were used as the source of enzymes; tissue XenoTech, LLC; host or cells: human liver microsomes, pool of sixteen donors
T1 sequence (P10635 whole entry): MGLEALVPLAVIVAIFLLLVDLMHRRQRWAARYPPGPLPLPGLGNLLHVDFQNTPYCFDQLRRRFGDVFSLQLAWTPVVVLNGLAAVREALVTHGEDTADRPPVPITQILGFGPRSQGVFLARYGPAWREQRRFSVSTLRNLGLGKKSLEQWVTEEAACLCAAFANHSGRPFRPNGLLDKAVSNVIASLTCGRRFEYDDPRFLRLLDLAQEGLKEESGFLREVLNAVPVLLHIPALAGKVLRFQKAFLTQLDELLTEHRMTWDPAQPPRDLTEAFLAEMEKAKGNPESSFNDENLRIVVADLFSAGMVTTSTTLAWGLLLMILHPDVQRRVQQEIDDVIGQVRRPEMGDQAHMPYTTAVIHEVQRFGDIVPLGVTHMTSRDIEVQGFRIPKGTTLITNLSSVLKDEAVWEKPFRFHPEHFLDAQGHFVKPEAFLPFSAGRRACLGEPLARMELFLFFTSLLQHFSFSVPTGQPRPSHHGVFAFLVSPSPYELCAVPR
The data set can be described thus: CYP2D6 inhibition, dextromethorphan O-demethylation in human liver microsomes. The format is in vitro ADME. The following applies: for Potential for Time-Dep. Inhibition: comparison with and without 30-minute pre-incubation; for inhibition at 5 min, 100 µM: human, pH 7.4, probe dextromethorphan (O-demethylation). Here is the method:
(§1) The basis for many of the following incubation conditions is described in the following references: Madan, et al., 2002,^(1) Huang, 2004,^(3) Ogilvie, et al., 2006,^(6) Pearce, et al., 1996,^(7) Tucker, et al., 2001,^(4) and Walsky and Obach, 2004.^(5) In general, incubations were conducted at approximately 37° C. in 400-μL incubation mixtures (target pH 7.4) containing high purity water, potassium phosphate buffer (50 mM), MgCl2 (3 mM), EDTA (1 mM), an NADPH-generating system [always the mixture of the following: NADP (1 mM), glucose-6-phosphate (5 mM), glucose-6-phosphate dehydrogenase (1 Unit/mL)], and marker substrate at the final concentrations indicated. Pooled human liver microsomes (from sixteen individuals) were used as the source of enzymes (Section 1.3.1.2). The concentrations of marker substrates were based on the Km and Vmax data that were determined previously (data not shown).
(§2) Due to the possibility that boceprevir may bind to microsomal protein or lipids, an attempt was made to design these experiments such that, in as many cases as possible, the microsomal protein, incubation time, and phosphate buffer concentration were 0.1 mg/mL, 5 minutes and 50 mM, respectively, for assays performed with human liver microsomes (Table 1). […] Since it is not imperative that the concentration of marker substrates be exactly equal to Km, the marker substrate concentrations were rounded up or down, as applicable, to simplify the experimental design (data not shown). […] Thus, the final incubation concentration of phenacetin was 60 μM (Table 1).
(§3) The ability of boceprevir to inhibit the CYP enzymes listed in Section 1.2.1 was investigated with a pool of sixteen individual human liver microsomal samples at the concentrations indicated in Table 1. Aliquots of the stock and/or working solutions of boceprevir were manually added to buffer mixtures containing the components described in Section 1.3.21. Incubation mixtures were prepared in bulk to obviate the need for directly pipetting very small volumes (i.e., 1 μL or less). Incubations containing no boceprevir (0 μM) contained the vehicle used to dissolve boceprevir (i.e., 1% methanol).
(§4) The Tecan liquid handling system conducted all remaining incubation steps, with the exception of the centrifugation. Aliquots of the buffer mixtures were then automatically added to 96-well plates at the appropriate locations in duplicate. Aliquots of a substrate working solution were added to the 96-well plates, prior to initiating reactions, to give the final concentrations indicated in Table 1. Reactions were initiated with the addition of an aliquot of an NADPH-generating system. Reactions were automatically terminated at approximately 5 minutes, by the addition of the appropriate internal standard (Table 5) and stop reagent; acetonitrile. Precipitated protein was removed by centrifugation (920 g for 10 minutes at 10° C.). Standards and quality control samples were similarly prepared with the addition of authentic metabolite standards.
(§5) To examine its ability to act as a time-dependent inhibitor, boceprevir (at the same concentrations used to evaluate direct inhibition) was pre-incubated at 37±1° C., in duplicate, with human liver microsomes and an NADPH-generating system for approximately 30 minutes. This pre-incubation allowed for the generation of intermediates that could inhibit human CYP enzymes. The pre-incubations were initiated with the addition of an aliquot of an NADPH-generating system. […] Reactions were automatically terminated, at approximately 5 minutes, by the addition of the appropriate internal standard (Table 5) and stop reagent; acetonitrile. Precipitated protein was removed by centrifugation (920 g for 10 minutes at 10° C.). Incubations containing no boceprevir (0 μM) and incubations that contained boceprevir but were not pre-incubated, served as negative controls.

Data set [3] addresses T2, CYP2C9 (Homo sapiens, UniProt P11712).
T2 construct: Pooled human liver microsomes (from sixteen individuals) were used as the source of enzymes; tissue XenoTech, LLC; host or cells: human liver microsomes, pool of sixteen donors
The data set is described as follows: CYP2C9 inhibition, diclofenac 4′-hydroxylation in human liver microsomes. The format is in vitro ADME. The conditions noted are these: for Potential for Time-Dep. Inhibition: comparison with and without 30-minute pre-incubation. On the procedure:
as §1, §2, §3, §4
To examine its ability to act as a time-dependent inhibitor, boceprevir (at the same concentrations used to evaluate direct inhibition) was pre-incubated at 37±1° C., in duplicate, with human liver microsomes and an NADPH-generating system for approximately 30 minutes. This pre-incubation allowed for the generation of intermediates that could inhibit human CYP enzymes. The pre-incubations were initiated with the addition of an aliquot of an NADPH-generating system. […]

Data set [4] concerns the target T3, CYP2E1 (Homo sapiens, UniProt P05181).
T3 construct: Pooled human liver microsomes (from sixteen individuals) were used as the source of enzymes; tissue XenoTech, LLC; host or cells: human liver microsomes, pool of sixteen donors
The data set can be described thus: CYP2E1 inhibition, chlorzoxazone 6-hydroxylation in human liver microsomes. It counts as in vitro ADME. The following applies: for Potential for Time-Dep. Inhibition: comparison with and without 30-minute pre-incubation. Here is the method:
as §1, §2, §3
The Tecan liquid handling system conducted all remaining incubation steps, with the exception of the centrifugation. Aliquots of the buffer mixtures were then automatically added to 96-well plates at the appropriate locations in duplicate. Aliquots of a substrate working solution were added to the 96-well plates, prior to initiating reactions, to give the final concentrations indicated in Table 1. Reactions were initiated with the addition of an aliquot of an NADPH-generating system. […]

Data set [5] in a line: Qualitative visual solubility in the test system. The format is physicochemical. The following applies: 10 μL of 10 mM methanol stock in 990 μL buffer with human liver microsomes, pH 7.4. On the procedure:
A stock solution of boceprevir (target concentration of 10 mM) in methanol was prepared and solubility testing was conducted to qualitatively assess boceprevir solubility in the test system. An aliquot (10 μL) of the highest stock boceprevir solution (10 mM in methanol) was added to a 990-μL mixture (target pH 7.4) containing high purity water, potassium phosphate buffer (50 mM), MgCl2 (3 mM), EDTA (1 mM), and human liver microsomes (0.0125 and 0.1 mg/mL) at the final concentrations listed (for a total volume of 1000 μt). […] The stock solution (10 mM boceprevir for IC50 determinations), along with dilutions to working solutions (ranging from 0.01 to 3.0 mM boceprevir) were prepared fresh each day experiments were performed. […] These solutions were prepared fresh on the day the Ki determination experiment was performed. Additionally, a stock concentration of 0.3 mM was used in the NADPH dependence/effects of dilution, as well as the MIC formation experiment.
Background: Microsomes from liver hold many membrane-bound enzymes, among them those of drug oxidation.

Data set [6] concerns CYP3A4/5. The data set can be described thus: CYP3A4/5 inhibition, testosterone 6β-hydroxylation in human liver microsomes. It counts as in vitro ADME. The following applies: for Potential for Time-Dep. Inhibition: comparison with and without 30-minute pre-incubation; for IC50 at 5 min / inhibition at 5 min, 100 µM: human, pooled human liver microsomes, pH 7.4, probe testosterone (6β-hydroxylation). Here is the method:
as §1, §2, §3, §4, §5

The mark [7] stands for this setting: direct inhibition, zero-minute pre-incubation, pooled human liver microsomes.
The mark [8] stands for this setting: time-dependent inhibition, 30-minute pre-incubation.

Here are results for one compound from patent US20140162942A1, “INHIBITION OF CYP3A DRUG METABOLISM” (priority 2010, published 2014).

Structures are written as SMILES. Like-named read-outs stand apart in the source and are kept apart here. Where only a bound is given, the exact number is not on record here.

T2 sequence (P11712 whole entry): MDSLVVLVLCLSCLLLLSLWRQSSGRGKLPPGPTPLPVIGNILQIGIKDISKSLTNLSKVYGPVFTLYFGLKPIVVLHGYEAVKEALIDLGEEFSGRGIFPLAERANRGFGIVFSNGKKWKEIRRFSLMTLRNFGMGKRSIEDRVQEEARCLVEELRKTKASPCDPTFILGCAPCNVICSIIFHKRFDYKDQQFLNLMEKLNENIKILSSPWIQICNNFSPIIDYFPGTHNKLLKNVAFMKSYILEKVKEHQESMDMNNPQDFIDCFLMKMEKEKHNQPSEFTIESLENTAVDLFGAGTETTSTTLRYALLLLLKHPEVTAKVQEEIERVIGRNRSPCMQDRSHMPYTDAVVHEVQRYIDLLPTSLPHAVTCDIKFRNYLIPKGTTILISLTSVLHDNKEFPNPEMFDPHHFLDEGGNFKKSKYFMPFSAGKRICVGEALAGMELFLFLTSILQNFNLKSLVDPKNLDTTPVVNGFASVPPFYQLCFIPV
T3 sequence (P05181 whole entry): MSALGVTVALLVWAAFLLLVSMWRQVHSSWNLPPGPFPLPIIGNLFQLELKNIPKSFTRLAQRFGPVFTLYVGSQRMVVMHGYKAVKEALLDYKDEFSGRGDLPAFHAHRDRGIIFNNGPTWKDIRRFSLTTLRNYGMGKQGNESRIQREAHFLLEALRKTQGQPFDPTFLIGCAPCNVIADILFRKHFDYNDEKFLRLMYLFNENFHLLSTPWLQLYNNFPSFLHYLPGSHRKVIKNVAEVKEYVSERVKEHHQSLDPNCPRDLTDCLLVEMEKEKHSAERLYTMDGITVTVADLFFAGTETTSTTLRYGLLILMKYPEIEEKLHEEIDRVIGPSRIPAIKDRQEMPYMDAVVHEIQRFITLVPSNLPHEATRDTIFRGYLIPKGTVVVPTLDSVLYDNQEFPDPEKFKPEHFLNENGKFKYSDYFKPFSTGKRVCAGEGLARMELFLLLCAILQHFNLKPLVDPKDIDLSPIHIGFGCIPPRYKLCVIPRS

On to `CC(C)(C)NC(=O)NC(C(=O)N1CC2C([C@H]1C(=O)NC(CC1CCC1)C(=O)C(N)=O)C2(C)C)C(C)(C)C` (stereo partly drawn) [Boceprevir, (1R,2S,5S)—N-[(2Ξ)-4-amino-1-cyclobutyl-3,4-dioxobutan-2-yl]-3-{(2S)-2-[(tert-butylcarbamoyl)amino]-3,3-dimethylbutanoyl}-6,6-dimethyl-3-azabicyclo[3.1.0]hexane-2-carboxamide], for which the “Resistance to dilution of the increase in inhibition upon pre-incubation” value in data set [1] (25-fold dilution after pre-incubation) was “did not appear to be resistant to dilution”. The “NADPH dependence of the increase in inhibition upon pre-incubation” value in data set [1] (pre-incubation 0, 15 and 30 minutes with and without NADPH) is “did require NADPH”. Besides, the “Potential for Time-Dep. Inhibition” value in data set [2] is listed as “little or no”; in data set [2] (listed as boceprevir), “no discernable time-dependent inhibition”; in data set [3], “little or no”; in data set [3] (listed as boceprevir), “no discernable time-dependent inhibition”; in data set [4] it was “little or no”; in data set [4] (listed as boceprevir), “no discernable time-dependent inhibition”. Moreover, the results for the “Potential for Time-Dep. Inhibition” value in data set [6] and in data set [6] (listed as boceprevir) were “yes^c” and “caused time-dependent inhibition”, respectively. Moreover, the IC50 in data set [2] (setting [7]), in data set [2] (setting [8]), in data set [3] (setting [7]), in data set [3] (setting [8]), in data set [4] (setting [7]) and in data set [4] (setting [8]) was over 100 µM throughout. Further, the inhibition at 5 min, 100 µM in data set [2] (pooled human liver microsomes, direct inhibition, zero-minute pre-incubation, read-out: Max. Inhib. at 100 μM) is 45%; in data set [2] (pooled human liver microsomes, time-dependent inhibition, 30-minute pre-incubation, read-out: Maximum Inhibition at 100 μM), 30%; in data set [3] (human, pooled human liver microsomes, pH 7.4, probe diclofenac (4′-hydroxylation), direct inhibition, zero-minute pre-incubation, read-out: Max. Inhib. at 100 μM), 3.6%; in data set [6] (direct inhibition, zero-minute pre-incubation, read-out: Max. Inhib. at 100 μM), 41%; in data set [6] (time-dependent inhibition, 30-minute pre-incubation, read-out: Maximum Inhibition at 100 μM) it was 95%. In addition, the “Solubility in the test system (qualitative visual comparison)” value in data set [5] is given as “soluble”. Moreover, the IC50 – broadly, the concentration that gives 50% inhibition – at 5 min in data set [6] (direct inhibition, zero-minute pre-incubation) is over 100000 nM; in data set [6] (setting [8]), 2300 nM.
